Laboratory results: US12577234B2, “Antagonists of the muscarinic acetylcholine receptor M4” (Vanderbilt University, priority 2017, dated 2026)

Molecular target: T1, human mAChR M4 (Homo sapiens, UniProt P08173)
T1 construct: expressed in transfected cells; host or cells: CHO-K1 (ATCC), stably co-expressing chimeric G protein Gqi5
T1 sequence (P08173 1-479): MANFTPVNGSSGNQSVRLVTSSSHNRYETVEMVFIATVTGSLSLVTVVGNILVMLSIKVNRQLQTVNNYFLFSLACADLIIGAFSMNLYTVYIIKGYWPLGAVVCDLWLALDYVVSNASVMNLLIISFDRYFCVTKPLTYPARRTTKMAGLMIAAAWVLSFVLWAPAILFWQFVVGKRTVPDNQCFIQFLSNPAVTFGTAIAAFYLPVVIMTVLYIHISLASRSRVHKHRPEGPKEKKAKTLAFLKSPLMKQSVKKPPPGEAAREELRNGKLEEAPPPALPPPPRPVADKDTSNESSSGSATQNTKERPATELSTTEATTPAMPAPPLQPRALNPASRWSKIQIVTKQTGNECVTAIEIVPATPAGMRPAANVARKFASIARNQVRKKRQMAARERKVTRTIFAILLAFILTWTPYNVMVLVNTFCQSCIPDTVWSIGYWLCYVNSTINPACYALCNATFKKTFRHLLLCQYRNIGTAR
Assay: mAChR M4 cell-based functional assay (calcium mobilization, EC80 acetylcholine), human M4
Details: Table 10
Method in brief: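 CHO-K1 cells stably expressing human M4 with chimeric Gqi5; intracellular calcium rise read on FDSS as fluorescence static ratio at 1 Hz. Compounds in 10-point 1:3 dilution series; IC50 taken as concentration-dependent decrease of the EC80 acetylcholine response, four-parameter logistic fit.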

[1] = M4/Gqi5/CHO-K1 cells, decrease of EC80 acetylcholine response

Compound	Human M4 Emin	IC50 [1]	IC50 (μM)
Fc1ccc(Cl)c(-c2ccc(N[C@H]3C[C@@H]4CN(Cc5cnc6ccccc6c5)C[C@@H]4C3)nn2)c1 [Compound 164, (3aR,5s,6aS)-N-[6-(2-chloro-5-fluoro-phenyl)pyridazin-3-yl]-2-(3-quinolylmethyl)-3,3a,4,5,6,6a-hexahydro-1H-cyclopenta[c]pyrrol-5-amine]	3%	0.065 µM	
Fc1ccc(Cl)c(-c2ccc(N[C@H]3C[C@@H]4CN(Cc5cn6ccccc6n5)C[C@@H]4C3)nn2)c1 [Compound 165, (3aR,5s,6aS)-N-[6-(2-chloro-5-fluoro-phenyl)pyridazin-3-yl]-2-(imidazo[1,2-a]pyridin-2-ylmethyl)-3,3a,4,5,6,6a-hexahydro-1H-cyclopenta[c]pyrrol-5-amine]	3%	0.0689 µM	
Fc1ccc(Cl)c(-c2ccc(N[C@H]3C[C@@H]4CN(Cc5ccc6c(c5)OCO6)C[C@@H]4C3)nn2)c1 [Compound 166, (3aR,5s,6a5)-2-(1,3-benzodioxol-5-ylmethyl)-N-[6-(2-chloro-5-fluoro-phenyl)pyridazin-3-yl]-3,3a,4,5,6,6a-hexahydro-1H-cyclopenta[c]pyrrol-5-amine]	2%	0.00619 µM	
Fc1ccc(Cl)c(-c2ccc(N[C@H]3C[C@@H]4CN(Cc5cccc6c5OCO6)C[C@@H]4C3)nn2)c1 [Compound 167, (3aR,5s,6aS)-2-(1,3-benzodioxol-4-ylmethyl)-N-[6-(2-chloro-5-fluoro-phenyl)pyridazin-3-yl]-3,3a,4,5,6,6a-hexahydro-1H-cyclopenta[c]pyrrol-5-amine]	2%	0.0391 µM	
COc1ccc(CN2C[C@H]3C[C@H](Nc4ccc(-c5cc(F)ccc5Cl)nn4)C[C@H]3C2)cc1 [Compound 168, (3aR,5s,6aS)-N-[6-(2-chloro-5-fluoro-phenyl)pyridazin-3-yl]-2-[(4-methoxyphenyl)methyl]-3,3a,4,5,6,6a-hexahydro-1H-cyclopenta[c]pyrrol-5-amine]	2%	0.0115 µM	
Fc1ccc(Cl)c(-c2ccc(N[C@H]3C[C@@H]4CN(CC5CC5)C[C@@H]4C3)nn2)c1 [Compound 169, (3aR,5s,6aS)-N-[6-(2-chloro-5-fluoro-phenyl)pyridazin-3-yl]-2-(cyclopropylmethyl)-3,3a,4,5,6,6a-hexahydro-1H-cyclopenta[c]pyrrol-5-amine]	3%	0.0188 µM	
Fc1ccc(Cl)c(-c2ccc(N[C@H]3C[C@@H]4CN(Cc5cnccn5)C[C@@H]4C3)nn2)c1 [Compound 170, (3aR,5s,6aS)-N-[6-(2-chloro-5-fluoro-phenyl)pyridazin-3-yl]-2-(pyrazin-2-ylmethyl)-3,3a,4,5,6,6a-hexahydro-1H-cyclopenta[c]pyrrol-5-amine]	5%	0.0543 µM	
CC1(CN2C[C@H]3C[C@H](Nc4ccc(-c5cc(F)ccc5Cl)nn4)C[C@H]3C2)COC1 [Compound 171, (3aR,5s,6aS)-N-[6-(2-chloro-5-fluoro-phenyl)pyridazin-3-yl]-2-[(3-methyloxetan-3-yl)methyl]-3,3a,4,5,6,6a-hexahydro-1H-cyclopenta[c]pyrrol-5-amine]	4%	0.0843 µM	
CS(=O)(=O)Nc1ccc(CN2C[C@H]3C[C@H](Nc4ccc(-c5cc(F)ccc5Cl)nn4)C[C@H]3C2)cc1 [Compound 172, N-[4-[[(3aR,5s,6aS)-5-[[6-(2-chloro-5-fluoro-phenyl)pyridazin-3-yl]amino]-3,3a,4,5,6,6a-hexahydro-1H-cyclopenta[c]pyrrol-2-yl]methyl]phenyl]methanesulfonamide]	3%	0.0427 µM	
CC1(C)CC(CN2C[C@H]3C[C@H](Nc4ccc(-c5cc(F)ccc5Cl)nn4)C[C@H]3C2)CCO1 (stereo partly drawn) [Compound 173, (3aR,5s,6aS)-N-[6-(2-chloro-5-fluoro-phenyl)pyridazin-3-yl]-2-[(2,2-dimethyltetrahydropyran-4-yl)methyl]-3,3a,4,5,6,6a-hexahydro-1H-cyclopenta[c]pyrrol-5-amine]	3%	0.00332 µM	
COc1ccccc1CN1C[C@H]2C[C@H](Nc3ccc(-c4cc(F)ccc4Cl)nn3)C[C@H]2C1 [Compound 174, (3aR,5s,6aS)-N-[6-(2-chloro-5-fluoro-phenyl)pyridazin-3-yl]-2-[(2-methoxyphenyl)methyl]-3,3a,4,5,6,6a-hexahydro-1H-cyclopenta[c]pyrrol-5-amine]	4%	0.207 µM	
Fc1cccc(CN2C[C@H]3C[C@H](Nc4ccc(-c5cc(F)ccc5Cl)nn4)C[C@H]3C2)c1 [Compound 175, (3aR,5s,6aS)-N-[6-(2-chloro-5-fluoro-phenyl)pyridazin-3-yl]-2-[(3-fluorophenyl)methyl]-3,3a,4,5,6,6a-hexahydro-1H-cyclopenta[c]pyrrol-5-amine]	3%	0.0297 µM	
Fc1ccc(Cl)c(-c2ccc(N[C@H]3C[C@@H]4CN(Cc5ccco5)C[C@@H]4C3)nn2)c1 [Compound 176, (3aR,5s,6aS)-N-[6-(2-chloro-5-fluoro-phenyl)pyridazin-3-yl]-2-(2-furylmethyl)-3,3a,4,5,6,6a-hexahydro-1H-cyclopenta[c]pyrrol-5-amine]	3%	0.0261 µM	
CC(C)CN1C[C@H]2C[C@H](Nc3ccc(-c4cc(F)ccc4Cl)nn3)C[C@H]2C1 [Compound 177, (3aR,5s,6aS)-N-[6-(2-chloro-5-fluoro-phenyl)pyridazin-3-yl]-2-isobutyl-3,3a,4,5,6,6a-hexahydro-1H-cyclopenta[c]pyrrol-5-amine]	3%	0.00502 µM	
Fc1ccc(Cl)c(-c2ccc(N[C@H]3C[C@@H]4CN(Cc5ccoc5)C[C@@H]4C3)nn2)c1 [Compound 178, (3aR,5s,6aS)-N-[6-(2-chloro-5-fluoro-phenyl)pyridazin-3-yl]-2-(3-furylmethyl)-3,3a,4,5,6,6a-hexahydro-1H-cyclopenta[c]pyrrol-5-amine]	3%	0.0451 µM	
Clc1ccc(N[C@H]2C[C@@H]3CN(CC4CCOCC4)C[C@@H]3C2)nn1 [Compound 179, (3aR,5s,6aS)-N-(6-chloropyridazin-3-yl)-2-(tetrahydropyran-4-ylmethyl)-3,3a,4,5,6,6a-hexahydro-1H-cyclopenta[c]pyrrol-5-amine]	29%		> 10 µM
CC(=O)Nc1ccc(-c2ccc(N[C@H]3C[C@@H]4CN(CC5CCOCC5)C[C@@H]4C3)nn2)cc1 [Compound 180, N-[4-[6-[[(3aR,5s,6aS)-2-(tetrahydropyran-4-ylmethyl)-3,3a,4,5,6,6a-hexahydro-1H-cyclopenta[c]pyrrol-5-yl]amino]pyridazin-3-yl]phenyl]acetamide]	8%	0.00117 µM	
c1cnc2ccc(-c3ccc(N[C@H]4C[C@@H]5CN(CC6CCOCC6)C[C@@H]5C4)nn3)cc2c1 [Compound 181, (3aR,5s,6aS)-N-[6-(6-quinolyl)pyridazin-3-yl]-2-(tetrahydropyran-4-ylmethyl)-3,3a,4,5,6,6a-hexahydro-1H-cyclopenta[c]pyrrol-5-amine]	4%	0.00142 µM	
c1cc2c(cc1-c1ccc(N[C@H]3C[C@@H]4CN(CC5CCOCC5)C[C@@H]4C3)nn1)OCO2 [Compound 182, (3aR,5s,6aS)-N-[6-(1,3-benzodioxol-5-yl)pyridazin-3-yl]-2-(tetrahydropyran-4-ylmethyl)-3,3a,4,5,6,6a-hexahydro-1H-cyclopenta[c]pyrrol-5-amine]	4%	0.00187 µM	
c1cn2cc(-c3ccc(N[C@H]4C[C@@H]5CN(CC6CCOCC6)C[C@@H]5C4)nn3)ccc2n1 [Compound 183, (3aR,5s,6aS)-N-(6-imidazo[1,2-a]pyridin-6-ylpyridazin-3-yl)-2-(tetrahydropyran-4-ylmethyl)-3,3a,4,5,6,6a-hexahydro-1H-cyclopenta[c]pyrrol-5-amine]	7%	0.00107 µM	
FC(F)(F)Oc1ccc(-c2ccc(N[C@H]3C[C@@H]4CN(CC5CCOCC5)C[C@@H]4C3)nn2)cc1 [Compound 184, (3aR,5s,6aS)-2-(tetrahydropyran-4-ylmethyl)-N-[6-[4-(trifluoromethoxy)phenyl]pyridazin-3-yl]-3,3a,4,5,6,6a-hexahydro-1H-cyclopenta[c]pyrrol-5-amine]	5%	0.0567 µM	
Fc1ccccc1-c1ccc(N[C@H]2C[C@@H]3CN(CC4CCOCC4)C[C@@H]3C2)nn1 [Compound 185, (3aR,5s,6aS)-N-[6-(2-fluorophenyl)pyridazin-3-yl]-2-(tetrahydropyran-4-ylmethyl)-3,3a,4,5,6,6a-hexahydro-1H-cyclopenta[c]pyrrol-5-amine]	4%	0.000667 µM	
Fc1ccc(-c2ccc(N[C@H]3C[C@@H]4CN(CC5CCOCC5)C[C@@H]4C3)nn2)cc1 [Compound 187, (3aR,5s,6aS)-N-[6-(4-fluorophenyl)pyridazin-3-yl]-2-(tetrahydropyran-4-ylmethyl)-3,3a,4,5,6,6a-hexahydro-1H-cyclopenta[c]pyrrol-5-amine]	4%	0.0046 µM	
